Assay results as given in patent US20070270484A1, “3'-N-Substituted-3-O-Substituted Erythronolide a Derivatives” (priority 2003, published 2007).

Tests used:
S. pneum AB 30 (erm) = assay: microbe, parasite or virus in culture; format: cell-based, streptococcus pneumoniae; settings: agar dilution, 18-24 hours, 35±2° C., 5% CO2; erm: ribosomal modification (mutation) erm genes
Method: (§1) Drug dilutions and the agar plates are prepared by NCCLS method. Inoculum is prepared by direct colony suspensions in normal saline and adjusted to 0.5 McFarland turbidity and subsequently diluted as per NCCLS guidelines in order to obtain 10^4 CFU/spot. CFU/ml of a few randomly selected cultures is performed. The cultures are replicated on the agar plates using replicator (Denley's multipoint). The plates are incubated at 35±2° C. and in 5% CO2 atmosphere (for respiratory and Haemophilus strains) for 18-24 hours at 35±2° C. Minimum inhibitory concentrations (MIC) are determined after 18-24 hours. Q. C. strains are also included in each run of the study. The cation content of Mueller Hinton agar is checked by performing disk […] of 10 μg gentamicin disk against Pseudomonas aeroginosa ATCC 27853. The zone of inhibition should fall between 16-21 mm. The concentration of drug at which there is complete disappearance of growth spot or formation of less than 10 colonies per spot is considered as MIC.

S. pneum 1275 (erm) = assay: microbe, parasite or virus in culture; format: cell-based, streptococcus pneumoniae; settings: agar dilution, 18-24 hours, 35±2° C., 5% CO2; erm: ribosomal modification (mutation) erm genes
Method: as §1

S. pneum 1294 (mef) = assay: microbe, parasite or virus in culture; format: cell-based, streptococcus pneumoniae; settings: agar dilution, 18-24 hours, 35±2° C., 5% CO2; mef: efflux pump mef genes
Method: as §1

S. pneum 1256 (erm) = assay: microbe, parasite or virus in culture; format: cell-based, streptococcus pneumoniae; settings: agar dilution, 18-24 hours, 35±2° C., 5% CO2; erm: ribosomal modification (mutation) erm genes
Method: as §1

S. pneum AB 29 (erm) = assay: microbe, parasite or virus in culture; format: cell-based, streptococcus pneumoniae; settings: agar dilution, 18-24 hours, 35±2° C., 5% CO2; erm: ribosomal modification (mutation) erm genes
Method: as §1

S. pneum AB 14 (erm) = assay: microbe, parasite or virus in culture; format: cell-based, streptococcus pneumoniae; settings: agar dilution, 18-24 hours, 35±2° C., 5% CO2; erm: ribosomal modification (mutation) erm genes
Method: as §1

S. pneum ATCC 6303 = assay: MIC, agar incorporation method (NCCLS agar dilution method); format: cell-based, streptococcus pneumoniae; settings: 18-24 hours, 35±2° C., 5% CO2
Method: as §1

S. pneum CS 1687 (mef) = assay: as above; format: cell-based, streptococcus pneumoniae; settings: 18-24 hours, 35±2° C., 5% CO2, mef: efflux pump mef genes
Method: as §1

S. pneum AB 34 (mef) = assay: as above; format: cell-based, streptococcus pneumoniae; settings: 18-24 hours, 35±2° C., 5% CO2, mef: efflux pump mef genes
Method: as §1

S. pneum ATCC 49619 = assay: as above; format: cell-based, streptococcus pneumoniae; settings: 18-24 hours, 35±2° C., 5% CO2
Method: as §1

S. pneum 1251 (mef) = assay: as above; format: cell-based, streptococcus pneumoniae; settings: 18-24 hours, 35±2° C., 5% CO2, mef: efflux pump mef genes
Method: as §1

MoraXella MI = assay: as above; format: cell-based; settings: 18-24 hours, 35±2° C.
Method: as §1

H. inflenza ATCC 49247 = assay: as above; format: cell-based, Haemophilus influenzae; settings: agar dilution, 18-24 hours, 35±2° C., 5% CO2
Method: Minimum inhibitory concentrations (μg/ml) were obtained for representative compounds of the invention, which are given in Table 2.
as §1

## 3-O-(4-Nitrophenyl)acetyl-5-O-(3′-N-desmethyl-3′-N-ethyl)desoaminyl-6-O-methyl erythronolide A [Compound No. 30]
S. pneum AB 30 (erm)
  Minimum Inhibitory Concentrations, S. pneum AB 30 (erm): >16 µg/mL
S. pneum 1275 (erm)
  Minimum Inhibitory Concentrations, S. pneum 1275 (erm): >16 µg/mL
S. pneum 1294 (mef)
  Minimum Inhibitory Concentrations, S. pneum 1294 (mef): 2 µg/mL
S. pneum 1256 (erm)
  Minimum Inhibitory Concentrations, S. pneum 1256 (erm): >16 µg/mL
S. pneum AB 29 (erm)
  Minimum Inhibitory Concentrations, S. pneum AB 29 (erm): <0.5 µg/mL
S. pneum AB 14 (erm)
  Minimum Inhibitory Concentrations, S. pneum AB 14 (erm): >16 µg/mL
S. pneum ATCC 6303
  Minimum Inhibitory Concentrations, S. pneum ATCC 6303: 1 µg/mL
S. pneum CS 1687 (mef)
  Minimum Inhibitory Concentrations, S. pneum CS 1687 (mef): 1 µg/mL
S. pneum AB 34 (mef)
  Minimum Inhibitory Concentrations, S. pneum AB 34 (mef): >16 µg/mL
S. pneum ATCC 49619
  Minimum Inhibitory Concentrations, S. pneum ATCC 49619: 1 µg/mL
S. pneum 1251 (mef)
  Minimum Inhibitory Concentrations, S. pneum 1251 (mef): 1 µg/mL
MoraXella MI
  Minimum Inhibitory Concentrations, MoraXella MI: 4 µg/mL
H. inflenza ATCC 49247
  Minimum Inhibitory Concentrations, H. inflenza ATCC 49247: >16 µg/mL
